Measured values: paper PMC8333062, “Chemical tools for epichaperome-mediated interactome dysfunctions of the central nervous system” (Nature Communications, 2021)

Experiments:
CYP3A = experiment: Cytochrome P450 profiling, ketoconazole; format: in vitro ADME, human; conditions: for % PU-HZ151 remaining: Ketoconazole
Protocol: To identify cytochrome P450 enzymes responsible for PU-HZ151’s metabolism in human liver microsomes the following procedure was followed. Phosphate buffer (100 mM, pH 7.4) was prepared monthly and stored at 4 °C. Frozen stock solutions of human liver microsomes (Life Technologies; Cat# HMMCPL) were used once after thawing and were not refrozen. NADPH stock solution (50 mM) in distilled water was prepared fresh daily. […] The stock solutions of these P450 inhibitors were prepared in DMSO. […] The concentration of the chemical inhibitors used in the assay were furafylline (10 μM), tranylcypromine (2 μM), ketoconazole (1 μM), troleandomycin (20 μM), orphenadrine (50 μM), montelukast (3 μM), sulfaphenazole (10 μM), benzylnirvanol (1 μM), quinidine (1 μM), and 1-aminobenzotriazole (1 mM) for all the P450 enzymes. Timing of the reactions was started following the addition of NADPH/magnesium chloride mix and PU-HZ151. Time-dependent chemical inhibitors (furafylline, troleandomycin, orphenadrine, and 1-aminobenzotriazole) were preincubated with human microsomes in the presence of NADPH and magnesium chloride for 15 min before the addition of PU-HZ151 and timing of reactions was started after addition of PU-HZ151. […] Following brief vortexing and centrifugation, a 200 µL aliquot of the supernatant was transferred to a tube, and 10 µL of haloperidol (1 µg mL^−1) as internal standard was added. Following brief vortexing and centrifugation, 50 µL of supernatant was added to a 96-well plate for subsequent LC-MS/MS analysis. PU-HZ151 was similarly tested as above in the absence of CYP inhibitors for comparative purposes. All samples were assayed in duplicate. […] This was similarly performed for incubations of PU-HZ151 performed in the absence of CYP inhibitor.

[1] = target: T1, 70 key receptor, enzyme, and ion channel proteins (Homo sapiens, UniProt P29274); experiment: General side effect profile (SEP) II diversity panel; format: binding; conditions: 1.0E-5 M
T1 construct: purchased Caliper Life Sciences (now PerkinElmer), NOVASCREEN General SEP II
T1 sequence (P29274 whole entry): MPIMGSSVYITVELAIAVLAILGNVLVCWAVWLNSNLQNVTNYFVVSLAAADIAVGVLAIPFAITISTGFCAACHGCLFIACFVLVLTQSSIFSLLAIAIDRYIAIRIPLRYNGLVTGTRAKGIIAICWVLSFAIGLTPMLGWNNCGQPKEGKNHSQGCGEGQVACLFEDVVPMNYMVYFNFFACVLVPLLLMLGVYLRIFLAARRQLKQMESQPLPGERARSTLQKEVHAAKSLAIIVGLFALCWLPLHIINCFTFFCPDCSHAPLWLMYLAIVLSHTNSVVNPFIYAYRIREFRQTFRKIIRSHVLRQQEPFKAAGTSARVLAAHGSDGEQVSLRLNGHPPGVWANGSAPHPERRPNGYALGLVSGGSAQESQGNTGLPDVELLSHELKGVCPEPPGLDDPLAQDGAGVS

[2] = target: T2, 70 key receptor, enzyme, and ion channel proteins (Homo sapiens, UniProt P49146); experiment: as above; format: binding; conditions: 1.0E-5 M
T2 construct: purchased Caliper Life Sciences (now PerkinElmer), NOVASCREEN General SEP II
T2 sequence (P49146 whole entry): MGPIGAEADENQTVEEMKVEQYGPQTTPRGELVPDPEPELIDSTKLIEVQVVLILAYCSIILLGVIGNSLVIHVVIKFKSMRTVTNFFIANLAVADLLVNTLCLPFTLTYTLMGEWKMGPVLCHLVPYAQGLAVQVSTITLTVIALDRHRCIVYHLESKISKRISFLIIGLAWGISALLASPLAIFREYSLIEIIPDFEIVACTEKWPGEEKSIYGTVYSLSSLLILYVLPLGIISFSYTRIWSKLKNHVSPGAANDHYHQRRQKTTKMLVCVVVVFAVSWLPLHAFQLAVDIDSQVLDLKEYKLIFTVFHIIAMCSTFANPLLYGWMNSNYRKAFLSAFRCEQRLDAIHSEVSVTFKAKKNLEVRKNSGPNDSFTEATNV

[3] = target: T3, 70 key receptor, enzyme, and ion channel proteins (Homo sapiens, UniProt P21917); experiment: as above; format: binding; conditions: 1.0E-5 M
T3 construct: purchased Caliper Life Sciences (now PerkinElmer), NOVASCREEN General SEP II
T3 sequence (P21917 whole entry): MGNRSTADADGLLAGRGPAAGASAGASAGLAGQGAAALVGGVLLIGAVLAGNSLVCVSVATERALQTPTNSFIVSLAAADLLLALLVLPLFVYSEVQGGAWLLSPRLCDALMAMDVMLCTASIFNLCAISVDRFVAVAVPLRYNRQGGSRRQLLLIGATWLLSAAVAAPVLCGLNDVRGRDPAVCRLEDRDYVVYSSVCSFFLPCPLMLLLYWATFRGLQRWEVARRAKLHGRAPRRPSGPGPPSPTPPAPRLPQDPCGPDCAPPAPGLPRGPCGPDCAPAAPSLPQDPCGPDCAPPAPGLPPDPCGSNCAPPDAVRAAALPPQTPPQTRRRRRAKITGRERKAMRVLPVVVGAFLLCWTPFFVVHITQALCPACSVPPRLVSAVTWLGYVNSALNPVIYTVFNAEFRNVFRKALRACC

[4] = tested on: 70 key receptor, enzyme, and ion channel proteins; experiment: as above; format: binding; conditions: 1.0E-5 M
[5] = target: T4, 70 key receptor, enzyme, and ion channel proteins (Homo sapiens, UniProt P34969); experiment: as above; format: binding; conditions: 1.0E-5 M
T4 construct: purchased Caliper Life Sciences (now PerkinElmer), NOVASCREEN General SEP II
T4 sequence (P34969 whole entry): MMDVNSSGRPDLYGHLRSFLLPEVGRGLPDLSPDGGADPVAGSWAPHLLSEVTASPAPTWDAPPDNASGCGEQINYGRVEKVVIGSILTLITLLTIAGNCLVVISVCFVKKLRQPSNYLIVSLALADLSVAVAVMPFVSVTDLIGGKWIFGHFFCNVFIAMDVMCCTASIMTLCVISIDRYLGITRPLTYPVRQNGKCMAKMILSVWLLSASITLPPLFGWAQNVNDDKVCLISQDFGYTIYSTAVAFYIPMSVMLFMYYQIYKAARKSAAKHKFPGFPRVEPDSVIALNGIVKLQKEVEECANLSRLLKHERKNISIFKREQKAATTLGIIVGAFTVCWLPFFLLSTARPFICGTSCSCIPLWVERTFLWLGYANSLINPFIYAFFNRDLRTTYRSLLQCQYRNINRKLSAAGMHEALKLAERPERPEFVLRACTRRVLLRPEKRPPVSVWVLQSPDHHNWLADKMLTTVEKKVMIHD

[6] = target: T5, 70 key receptor, enzyme, and ion channel proteins (Homo sapiens, UniProt P08908); experiment: as above; format: binding
T5 construct: purchased Caliper Life Sciences (now PerkinElmer), NOVASCREEN General SEP II
T5 sequence (P08908 whole entry): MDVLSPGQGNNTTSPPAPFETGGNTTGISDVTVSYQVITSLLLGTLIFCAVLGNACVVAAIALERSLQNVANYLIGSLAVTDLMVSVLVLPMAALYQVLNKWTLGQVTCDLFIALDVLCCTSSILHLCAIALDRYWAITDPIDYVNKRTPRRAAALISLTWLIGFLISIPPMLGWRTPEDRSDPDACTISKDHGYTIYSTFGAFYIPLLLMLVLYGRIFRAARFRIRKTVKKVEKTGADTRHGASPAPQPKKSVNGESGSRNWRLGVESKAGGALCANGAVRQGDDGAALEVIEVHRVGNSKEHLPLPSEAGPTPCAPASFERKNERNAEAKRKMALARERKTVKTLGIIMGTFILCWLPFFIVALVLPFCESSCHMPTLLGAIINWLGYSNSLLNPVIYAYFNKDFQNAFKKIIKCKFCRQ

[7] = target: T6, 70 key receptor, enzyme, and ion channel proteins (Homo sapiens, UniProt O76074); experiment: as above; format: binding; conditions: 1.0E-5 M
T6 construct: purchased Caliper Life Sciences (now PerkinElmer), NOVASCREEN General SEP II

[8] = target: T7, 70 key receptor, enzyme, and ion channel proteins (Homo sapiens, UniProt P07550); experiment: as above; format: binding; conditions: 1.0E-5 M
T7 construct: purchased Caliper Life Sciences (now PerkinElmer), NOVASCREEN General SEP II
T7 sequence (P07550 whole entry): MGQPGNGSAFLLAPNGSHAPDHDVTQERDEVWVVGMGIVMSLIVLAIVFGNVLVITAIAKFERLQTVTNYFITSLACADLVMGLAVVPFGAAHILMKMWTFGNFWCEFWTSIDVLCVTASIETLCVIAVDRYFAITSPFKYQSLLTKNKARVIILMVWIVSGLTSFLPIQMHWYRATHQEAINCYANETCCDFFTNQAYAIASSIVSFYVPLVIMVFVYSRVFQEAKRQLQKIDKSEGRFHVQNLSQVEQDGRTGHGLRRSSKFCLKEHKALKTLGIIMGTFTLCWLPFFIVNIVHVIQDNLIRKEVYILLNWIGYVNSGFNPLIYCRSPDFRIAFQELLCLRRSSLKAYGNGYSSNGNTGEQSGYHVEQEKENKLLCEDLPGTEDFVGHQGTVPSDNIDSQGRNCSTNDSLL

[9] = target: T8, 70 key receptor, enzyme, and ion channel proteins (Homo sapiens, UniProt P25101); experiment: as above; format: binding; conditions: 1.0E-5 M
T8 construct: purchased Caliper Life Sciences (now PerkinElmer), NOVASCREEN General SEP II
T8 sequence (P25101 21-427): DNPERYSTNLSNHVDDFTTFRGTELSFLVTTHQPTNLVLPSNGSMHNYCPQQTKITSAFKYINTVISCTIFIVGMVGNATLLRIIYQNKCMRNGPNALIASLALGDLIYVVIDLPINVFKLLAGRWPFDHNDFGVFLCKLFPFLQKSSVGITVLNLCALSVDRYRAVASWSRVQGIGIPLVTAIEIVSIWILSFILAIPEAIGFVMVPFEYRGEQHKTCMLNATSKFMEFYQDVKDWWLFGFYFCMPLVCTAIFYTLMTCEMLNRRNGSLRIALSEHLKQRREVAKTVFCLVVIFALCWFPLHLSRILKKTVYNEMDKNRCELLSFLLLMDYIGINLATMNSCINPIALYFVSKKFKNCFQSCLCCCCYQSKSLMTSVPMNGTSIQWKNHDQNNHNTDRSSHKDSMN

[10] = target: T9, 70 key receptor, enzyme, and ion channel proteins (Homo sapiens, UniProt P17612); experiment: as above; format: binding; conditions: 1.0E-5 M
T9 construct: purchased Caliper Life Sciences (now PerkinElmer), NOVASCREEN General SEP II

[11] = target: T10, 70 key receptor, enzyme, and ion channel proteins (Homo sapiens, UniProt P08172); experiment: as above; format: binding; conditions: 1.0E-5 M
T10 construct: purchased Caliper Life Sciences (now PerkinElmer), NOVASCREEN General SEP II
T10 sequence (P08172 whole entry): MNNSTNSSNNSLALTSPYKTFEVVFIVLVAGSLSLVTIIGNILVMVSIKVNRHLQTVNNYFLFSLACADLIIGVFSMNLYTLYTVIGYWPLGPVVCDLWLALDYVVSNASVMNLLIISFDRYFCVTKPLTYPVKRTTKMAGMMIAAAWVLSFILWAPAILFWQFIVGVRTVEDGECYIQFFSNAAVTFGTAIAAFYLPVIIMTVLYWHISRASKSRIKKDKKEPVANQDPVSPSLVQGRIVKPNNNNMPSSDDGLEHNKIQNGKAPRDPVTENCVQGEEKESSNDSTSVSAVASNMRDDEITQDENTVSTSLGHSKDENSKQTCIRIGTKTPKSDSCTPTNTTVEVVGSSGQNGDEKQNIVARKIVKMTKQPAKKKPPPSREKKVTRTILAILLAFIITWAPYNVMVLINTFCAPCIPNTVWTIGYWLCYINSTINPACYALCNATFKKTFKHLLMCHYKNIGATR

[12] = target: 70 key receptor, enzyme, and ion channel proteins (Homo sapiens, UniProt P35372); experiment: as above; format: binding
70 key receptor, enzyme, and ion channel proteins (Homo sapiens, UniProt P35372), sequence (P35372 whole entry): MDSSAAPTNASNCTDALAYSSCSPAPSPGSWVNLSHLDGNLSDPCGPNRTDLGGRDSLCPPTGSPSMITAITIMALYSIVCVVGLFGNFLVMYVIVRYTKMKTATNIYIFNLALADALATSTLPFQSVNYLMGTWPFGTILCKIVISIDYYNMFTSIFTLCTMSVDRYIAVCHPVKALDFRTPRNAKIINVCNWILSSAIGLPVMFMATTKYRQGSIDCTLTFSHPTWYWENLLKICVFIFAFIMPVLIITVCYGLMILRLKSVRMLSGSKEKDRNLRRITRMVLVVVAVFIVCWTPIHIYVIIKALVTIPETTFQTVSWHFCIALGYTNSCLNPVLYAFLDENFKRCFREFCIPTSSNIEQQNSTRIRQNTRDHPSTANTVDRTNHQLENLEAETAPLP

## CC(C)(C)CNCCn1c(Sc2cc3c(cc2I)OCO3)nc2c(N)ncnc21 [Compound 85]
CYP3A; 15 min
  % PU-HZ151 remaining: 76.5%
CYP3A; 30 min
  % PU-HZ151 remaining: 63.5%
CYP3A; 60 min
  % PU-HZ151 remaining: 50.6%
CYP3A; ketoconazole
  inhibition of PU-HZ151 metabolism: 40%
[1]
  Percent Inhibition: Adenosine, A2A (h): 0.79%
[2]
  Percent Inhibition: Neuropeptide, NPY2 (h): 28.79%
[3]
  Percent Inhibition: Dopamine, D4. 4 (h): 10.85%
[4]
  Percent Inhibition: Adenosine, Al: 14.00%
  Percent Inhibition: Adrenergic, Alpha 1B: 27.43%
  Percent Inhibition: Adrenergic, Alpha 2A (h): -1.92%
  Percent Inhibition: Adrenergic, Alpha 2B: 10.67%
  Percent Inhibition: Adrenergic, Alpha 2C (h): 15.07%
  Percent Inhibition: Adrenergic, Alpha lA: 12.17%
  Percent Inhibition: Angiotensin II, ATl (h): 0.36%
  Percent Inhibition: Bradykinin, BK2: 10.14%
  Percent Inhibition: Calcium Channel, Type N: -11.15%
  Percent Inhibition: Dopamine Transporter: -12.87%
  Percent Inhibition: Dopamine, D2s (h): 20.57%
  Percent Inhibition: Dopamine, D3: -6.23%
  Percent Inhibition: Esterase, Acetylcholine: 6.63%
  Percent Inhibition: GABA A, Agonist Site: 33.91%
  Percent Inhibition: GABA A, BDZ, alpha 1 site: 18.61%
  Percent Inhibition: GABA, Chloride, TBOB Site: -28.46%
  Percent Inhibition: GABA-B: 18.61%
  Percent Inhibition: Glutamate, AMPA Site (Ionotropic): 8.62%
  Percent Inhibition: Glutamate, Kainate Site (Ionotropic): -7.63%
  Percent Inhibition: Glutamate, MK-801 Site (Ionotropic): -0.50%
  Percent Inhibition: Glutamate, NMDA Agonist Site (Ionotropic): 23.69%
  Percent Inhibition: Glutamate, NMDA, Phencyclidine Site (Ionotropic): 6.26%
  Percent Inhibition: Glutamate,NMDA,Glycine (Stry-insens Site): -0.97%
  Percent Inhibition: Glycine, Strychnine-sensitive: -19.46%
  Percent Inhibition: Histamine, H2: 40.98%
  Percent Inhibition: Histamine, H3: 22.25%
  Percent Inhibition: Histamine, Hl: 5.94%
  Percent Inhibition: Leukotriene, LTB4 (BLT): 22.06%
  Percent Inhibition: Leukotriene, LTD4 (CysLTl): 28.77%
  Percent Inhibition: Neurokinin, NKl: 20.40%
  Percent Inhibition: Nicotinic, Neuronal (a-BnTx insensitive): -17.51%
  Percent Inhibition: Nitric Oxide, NOS (Neuronal-Binding): -1.73%
  Percent Inhibition: Norepinephrine Transporter: 5.73%
  Percent Inhibition: Phosphodiesterase, PDE4A1A (h): 14.00%
  Percent Inhibition: Potassium Channel, ATP-Sensitive: -1.01%
  Percent Inhibition: Potassium Channel, Ca2+ Act., VI: 18.66%
  Percent Inhibition: Serotonin Transporter: 5.96%
  Percent Inhibition: Serotonin, 5HT1D: 5.13%
  Percent Inhibition: Serotonin, 5HT2A: 8.50%
  Percent Inhibition: Serotonin, 5HT2C: 12.77%
  Percent Inhibition: Serotonin, 5HT3: 6.61%
  Percent Inhibition: Serotonin, 5HT4: 36.08%
  Percent Inhibition: Sigma 2: -0.71%
  Percent Inhibition: Sodium, Site 2: 14.53%
[5]
  Percent Inhibition: Serotonin, 5HT7 (h): 14.36%
[6]
  Percent Inhibition: Serotonin, 5HT1A (h): -16.30%
[7]
  Percent Inhibition: Phosphodiesterase, PDE5Al (h): -35.00%
[8]
  Percent Inhibition: Adrenergic, Beta 2 (h): 3.05%
[9]
  Percent Inhibition: Endothelin, ET-A (h): 13.54%
[10]
  Percent Inhibition: Kinase, Protein, PKA (h): 0.09%
[11]
  Percent Inhibition: Muscarinic, M2 (h): 45.44%
[12]
  Percent Inhibition: Opioid, Mu (h): 56.70%
